Results as given in patent US20230407243A1, “GENETIC PLATFORM TO INVESTIGATE THE FUNCTIONS OF BACTERIAL DRUG EFFLUX PUMPS” (priority 2022, published 2023).
Where two headings read alike, the source gives them in different places.

Assays:
Format in all cases: cell-based, Escherichia coli
E. coli ΔtolC = assay: microbe, parasite or virus in culture
Summary of the method: (§1)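 Turbidity (OD600, pre-incubation subtracted) defined growth after 18 h at 37 °C in MHB II. The inoculum was diluted 1/2000 from an OD600 ~1.0 PBS suspension of an overnight LB culture. Compounds were run as duplicate twofold dilutions.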

[1] = tested on: wild-type E. coli K-12 str. BW25113; assay: microbe, parasite or virus in culture; conditions: Escherichia coli, BW25113, technical duplicate
Summary of the method: as §1

E. coli EKO-35 = assay: microbe, parasite or virus in culture; conditions: for MIC: Escherichia coli, EKO35, technical duplicate
Summary of the method: as §1

EKO-35-Pore = assay: MIC susceptibility profiling, porinated strain; conditions: for MIC: Escherichia coli, technical duplicate
Summary of the method: (§2)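 E. coli strains carrying a genomically integrated constitutive fhuA ΔC/Δ4L pore were grown 18 h in LB at 37 °C, then diluted 1/2000 in MHB II from OD600 ~1.0. Compounds were tested in duplicate, 2-fold serial titration, for 18 h at 37 °C with shaking. MIC came from OD600 with the pre-incubation background subtracted.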

EKO-35 araC::mdtBC = assay: MIC susceptibility profiling, efflux platform
Summary of the method: as §1

EKO-35 araC::mdtEF = assay: MIC susceptibility profiling, efflux platform
Summary of the method: as §1

ΔtolC-Pore = assay: microbe, parasite or virus in culture
Summary of the method: as §2

wild-type (WT) K-12-Pore = assay: microbe, parasite or virus in culture; conditions: Escherichia coli, technical duplicate
Summary of the method: as §2

EKO-35 araC::acrB Pore = assay: MIC susceptibility profiling, porinated efflux platform
Summary of the method: as §2

EKO-35 araC::emrAB Pore = assay: as above
Summary of the method: as §2

EKO-35 araC::mdtBC Pore = assay: as above
Summary of the method: as §2

EKO-35 araC::acrD Pore = assay: as above
Summary of the method: as §2

EKO-35 araC::macAB Pore = assay: as above
Summary of the method: as §2

EKO-35 araC::acrEF Pore = assay: as above
Summary of the method: as §2

EKO-35 araC::emrKY Pore = assay: as above
Summary of the method: as §2

EKO-35 araC::mdtEF Pore = assay: as above
Summary of the method: as §2

EKO-35 araC::mexCD Pore = assay: as above
Summary of the method: as §2

[2] = tested on: EKO-35 araC::acrBD408A Pore; assay: as above
Summary of the method: as §2

CN(C)[C@@H]1C(O)=C(C(N)=O)C(=O)[C@@]2(O)C(O)=C3C(=O)c4c(O)cccc4[C@@](C)(O)[C@H]3C[C@@H]12 [tetracycline]
2 fold: Fold changes of MICs (EKO-35 araC::acrB Pore; EKO-35 araC::acr-B Pore compared to EKO-35-Pore)
0.195 µg/mL: MIC (E. coli EKO-35; Table 10, without pore, read-out: Minimum inhibitory concentration (MIC), EKO-35) | MIC (E. coli EKO-35; Table 13A, non-porinated, read-out: Minimum Inhibitory Concentration, EKO-35) | MIC (EKO-35-Pore; Table 10, with pore, read-out: Minimum inhibitory concentration (MIC), Pore EKO-35) | MIC (EKO-35-Pore; Table 14A, porinated, read-out: Minimum inhibitory concentration, EKO-35-Pore) | MIC (EKO-35 araC::mdtBC; Escherichia coli, Table 13B, non-porinated, technical duplicate, read-out: Minimum Inhibitory Concentration, EKO-35 araC::mdtBC) | MIC (EKO-35 araC::mdtEF; Escherichia coli, Table 13A, non-porinated, technical duplicate, read-out: Minimum Inhibitory Concentration, EKO-35 araC::mdtEF) | MIC (EKO-35 araC::emrAB Pore; Escherichia coli, EKO-35 araC::emrAB Pore, technical duplicate, read-out: Minimum inhibitory concentration) | MIC (EKO-35 araC::mdtBC Pore; Escherichia coli, EKO-35 araC::mdtBC Pore, technical duplicate, read-out: Minimum inhibitory concentration) | MIC (EKO-35 araC::acrD Pore; Escherichia coli, Table 14A, porinated, technical duplicate, read-out: Minimum inhibitory concentration, EKO-35 araC::acrD Pore) | MIC (EKO-35 araC::macAB Pore; Escherichia coli, EKO-35 araC::macAB Pore, technical duplicate, read-out: Minimum inhibitory concentration) | MIC (EKO-35 araC::acrEF Pore; Escherichia coli, Table 14A, porinated, technical duplicate, read-out: Minimum inhibitory concentration, EKO-35 araC::acrEF Pore) | MIC (EKO-35 araC::emrKY Pore; Escherichia coli, EKO-35 araC::emrKY Pore, technical duplicate, read-out: Minimum inhibitory concentration) | MIC (EKO-35 araC::mdtEF Pore; Escherichia coli, Table 14A, porinated, technical duplicate, read-out: Minimum inhibitory concentration, EKO-35 araC::mdtEF Pore) | MIC (EKO-35 araC::mexCD Pore; Escherichia coli, EKO-35 araC::mexCD Pore, technical duplicate, read-out: Minimum inhibitory concentration) | MIC ([2]; Escherichia coli, EKO-35 araC::acrBD408A Pore, technical duplicate, read-out: Minimum inhibitory concentration)
0.781 µg/mL: MIC (wild-type (WT) K-12-Pore; Table 10, with pore, read-out: Minimum inhibitory concentration (MIC), Pore K-12) | MIC (wild-type (WT) K-12-Pore; Table 14A, porinated, read-out: Minimum inhibitory concentration, K-12 (WT)-Pore)
1.56 µg/mL: MIC ([1]; Table 10, without pore, read-out: Minimum inhibitory concentration (MIC), K-12) | MIC ([1]; Table 13A, non-porinated, read-out: Minimum Inhibitory Concentration, K-12)
0.391 µg/mL: MIC (E. coli ΔtolC; Escherichia coli, 18 h, read-out: Minimum Inhibitory Concentration, ΔtolC) | Minimum inhibitory concentration (MIC), ΔtolC (E. coli ΔtolC; Table 10, without pore, technical duplicate) | MIC (ΔtolC-Pore; Escherichia coli, 18 h, read-out: Minimum inhibitory concentration, ΔtolC-Pore) | Minimum inhibitory concentration (MIC), Pore ΔtolC (ΔtolC-Pore; Table 10, with pore, technical duplicate) | MIC (EKO-35 araC::acrB Pore; Escherichia coli, Table 14A, porinated, technical duplicate, read-out: Minimum inhibitory concentration, EKO-35 araC::acrB Pore)
1 fold: Fold change of MICs (E. coli EKO-35; EKO-35 compared to EKO-35 (reference)) | Fold changes of MICs (EKO-35-Pore; EKO-35-Pore compared to EKO-35-Pore (reference)) | Fold change of MICs (EKO-35 araC::mdtBC; EKO-35 araC::mdtBC compared to EKO-35) | Fold change of MICs (EKO-35 araC::mdtEF; EKO-35 araC::mdtEF compared to EKO-35) | Fold changes of MICs (EKO-35 araC::emrAB Pore; EKO-35 araC::emrAB Pore compared to EKO-35-Pore) | Fold changes of MICs (EKO-35 araC::mdtBC Pore; EKO-35 araC::mdtBC Pore compared to EKO-35-Pore) | Fold changes of MICs (EKO-35 araC::acrD Pore; EKO-35 araC::acrD Pore compared to EKO-35-Pore) | Fold changes of MICs (EKO-35 araC::macAB Pore; EKO-35 araC::macAB Pore compared to EKO-35-Pore) | Fold changes of MICs (EKO-35 araC::acrEF Pore; EKO-35 araC::acrEF Pore compared to EKO-35-Pore) | Fold changes of MICs (EKO-35 araC::emrKY Pore; EKO-35 araC::emrKY Pore compared to EKO-35-Pore) | Fold changes of MICs (EKO-35 araC::mdtEF Pore; EKO-35 araC::mdtEF Pore compared to EKO-35-Pore) | Fold changes of MICs (EKO-35 araC::mexCD Pore; EKO-35 araC::mexCD Pore compared to EKO-35-Pore) | Fold changes of MICs ([2]; EKO-35 araC::acrBD408A Pore compared to EKO-35-Pore)
